According to patent US9056111B1, “Selective efflux inhibitors and related pharmaceutical compositions and methods of treatment” (STC.UNM, priority 2011, dated 2015):
In brackets after ≈: the same amount, converted by molar mass. Entries after “also recorded” stand apart in the source; their conditions may differ.

Key:
[1] = test system: ABCG2 over-expressing Igrov1/T8 tumors; experiment: ABCG2 resistant Igrov1/T8 tumor xenograft, combination with topotecan; assay type: in vivo, CB-17 SCID mice; conditions: for tumor size, combination of TPT and inhibitor: 150 nM TPT + 100 nM SID 88095709 (1) or 500 nM SID 85752814 (7), up to 96 hr
Procedure: Specific-pathogen-free adult CB-17 female SCID mice (5-6 weeks of age) weighing 20-25 g, are purchased. Briefly, ABCG2 over-expressing Igrov1/T8 cells are injected (5×10^6 cells/mouse). Prior to injection, Igrov1/T8 cells are maintained in topotecan in order to assure continuous expression of ABCG2. Tumors are allowed to grow for 3-4 weeks or until tumor volumes are greater than ˜100 cubic millimeters, at which time they are stratified into treatment groups. Treatment is administered and we observe the size of the tumor and weight of the mouse over a 7 day period. At the end of 7 days, we: 1) sacrifice the animal; 2) measure and weigh the tumor (if present); 3) analyze the histology of the tumor as well as other organs for evidence of toxicity; and 4) measure the expression of ABCG2 receptors on the tumor to determine if in vivo growth has altered ABCG2 expression. In our initial studies, we have generally observed high survival at 4 weeks (>90%) which escalates rapidly with near 100% mortality by 6 weeks. This approach is well described elsewhere.^9
Tumor-bearing mice were injected with either 150 nM TPT, 100 nM SID 88095709 (probe resupply), or 500 nM SID 85752814 (original SMR hit).
Igrov1/T8 cells were injected into the hind limbs of CB-17 SCID mice at a concentration of 1×10^7 cells in 200 μL, n of 3 per condition. The tumor was grown until the volume was in the range of 75 mm^3 to 250 mm^3. […] Injections were repeated daily and the size of the tumor was determined as a fraction of the starting size. After four days the mice were sacrificed and any recurring tumor was verified by light microscopy examination of histological sections. Mice were studied and maintained in accordance with guidelines of our Institutional Animal Research Committee at UNM HSC.

[2] = test system: ABCB1 over-expressing Jurkat-DNR cells; experiment: Chemoreversal assay: potentiation of daunorubicin (DNR) killing; assay type: cell-based; conditions: constant 100 nM DNR, varied inhibitor dose, read-out: CR50 ABCB1
Procedure: Cells (ABCB1, Jurkat-DNR or ABCG2 Ig-MXP3) are incubated with the test compound (3 order of magnitude concentration range) over a 3-day and 7-day period in the presence of the inhibitor and chemotherapeutic (ABCB1, DNR or ABCG2 MTX), such that a cell concentration of at least 1×10^5 cells/mL is maintained. Cell viability is determined by trypan blue staining and enumeration under light microscopy. […] A chemoreversal index (Chemoreversal 50, CR50) is determined from the viability assessment. Using a similar approach, a direct cytotoxicity index (Toxic Dose 50, TD50) is determined by assessment of cell death of cells grown in media alone.
Cells (ABCB1, Jurkat-DNR or ABCG2 Ig-MXP3) were incubated with the test compound in a 3 order of magnitude concentration range over three and seven day periods in the presence of the inhibitor and chemotherapeutic (ABCB1, 100 nM DNR or ABCG2 30 nM MTX), such that a cell concentration of at least 1×10^5 cells mL^−1 was maintained. Cell viability was determined by trypan blue staining and enumeration under light microscopy. […] A chemoreversal index (Chemoreversal 50, CR50) was determined from the viability assessment. Using a similar approach, a direct cytotoxicity index (Toxic Dose 50, TD50) was determined by assessment of cell death of cells grown in media alone.

ABCB1 / ABCG2 = biological target: T1, ABCB1 / ABCG2 (Homo sapiens, UniProt Q9UNQ0); experiment: JC-1 efflux inhibition dose response, flow cytometry, Ig-MXP3 cells; conditions: human, probe JC-1 (1 µM), ~Fold G2 Selective (B1/G2), quotient of average ABCB1 IC50 and average ABCG2 IC50, efflux assay
T1 sequence (Q9UNQ0 1-655): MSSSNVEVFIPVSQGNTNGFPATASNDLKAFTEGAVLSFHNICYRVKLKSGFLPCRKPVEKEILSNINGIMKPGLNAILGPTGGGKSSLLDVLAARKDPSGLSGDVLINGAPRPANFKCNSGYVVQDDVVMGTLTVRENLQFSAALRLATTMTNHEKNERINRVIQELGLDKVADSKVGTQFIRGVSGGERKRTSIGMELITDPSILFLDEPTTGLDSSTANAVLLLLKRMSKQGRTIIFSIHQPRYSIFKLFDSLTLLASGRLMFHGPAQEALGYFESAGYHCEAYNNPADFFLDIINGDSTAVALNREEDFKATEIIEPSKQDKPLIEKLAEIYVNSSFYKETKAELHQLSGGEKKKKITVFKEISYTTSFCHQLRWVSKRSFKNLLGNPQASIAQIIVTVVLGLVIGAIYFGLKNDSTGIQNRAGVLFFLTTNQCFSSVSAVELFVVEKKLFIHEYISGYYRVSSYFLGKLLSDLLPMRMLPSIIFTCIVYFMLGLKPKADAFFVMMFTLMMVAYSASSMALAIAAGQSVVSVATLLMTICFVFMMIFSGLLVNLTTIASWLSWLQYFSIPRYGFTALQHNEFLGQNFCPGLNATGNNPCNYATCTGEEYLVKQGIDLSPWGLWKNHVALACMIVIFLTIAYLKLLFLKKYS
Outline: (§1)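 Ig-MXP3 (ABCG2) and Jurkat-DNR (ABCB1) cells, run separately, are pre-stained with 1 μM JC-1 and added to compound in PBS; retained dye is read by high-throughput flow cytometry with time-gated analysis.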

ABCG2 = biological target: T2, ABCG2 (Homo sapiens, UniProt Q9UNQ0); experiment: as above
T2 sequence (Q9UNQ0 1-655): T1 sequence (Q9UNQ0 1-655)
Outline: as §1

[3] = Aqueous solubility in PBS; assay type: physicochemical; conditions: phosphate buffered saline (PBS), aqueous buffer; PBS pH 7.4, room temperature (23° C.)
Procedure: PBS by definition is 137 mMNaCl, 2.7 mMKCl, 10 mM sodium phosphate dibasic, 2 mM potassium phosphate monobasic and a pH of 7.4.

In the case of O=C(c1ccoc1)N1CCN(c2cc(-c3ccco3)nc3cc(-c4ccccc4)nn23)CC1 [Compound 1, (4-(5-(furan-2-yl)-2-phenylpyrazolo[1,5-a]pyrimidin-7-yl)piperazin-1-yl)(furan-3-yl)methanone], the “tumor size, combination of TPT and inhibitor” value [1] is reported as “dramatically reduced tumor size; also recorded: Significant tumor reduction”, the “tumor size, combination of TPT and inhibitor” value ([1]; listed as SID 88095709) is reported as “dramatically reduced tumor size” and the “tumor size, single agent” value ([1]; 150 nM TPT, 100 nM SID 88095709 or 500 nM SID 85752814 alone) is reported as “remained the same or increased”. For the same compound, the “tumor size, inhibitor alone” value ([1]; inhibitor alone (100 nM or 500 nM as printed), Example 3) was “No reduction in size”, the EC50 [2] was 550 nM and the selectivity ratio at 30 min (ABCB1 / ABCG2) was 36. The EC50 (ABCG2) was 130 nM, the IC50 (ABCG2) was 130 ± 300 nM and the “fold higher potency in ABCG2 than the prior art Ko143” value (ABCG2; JC-1 efflux reporter system) was “approximately 100 fold”. For the same compound, the “~Fold G2 Selective (B1/G2)” value (ABCG2; quotient of average ABCB1 IC50 and average ABCG2 IC50, efflux assay) was 35.8 fold and the solubility [3] was 0.51 µg/mL (≈ 1.16 µM).
